Laboratory results taken from ChEMBL document CHEMBL4507268 (2021).

Key:
[1] = target: Casein kinase II subunit alpha' (Homo sapiens) (UniProt P19784); conditions: Compound concentration 1000.0 nM
[2] = target: T1, Inhibitor of nuclear factor kappa-B kinase subunit alpha (Homo sapiens) (UniProt O15111); conditions: Compound concentration 1000.0 nM
T1 sequence (whole entry): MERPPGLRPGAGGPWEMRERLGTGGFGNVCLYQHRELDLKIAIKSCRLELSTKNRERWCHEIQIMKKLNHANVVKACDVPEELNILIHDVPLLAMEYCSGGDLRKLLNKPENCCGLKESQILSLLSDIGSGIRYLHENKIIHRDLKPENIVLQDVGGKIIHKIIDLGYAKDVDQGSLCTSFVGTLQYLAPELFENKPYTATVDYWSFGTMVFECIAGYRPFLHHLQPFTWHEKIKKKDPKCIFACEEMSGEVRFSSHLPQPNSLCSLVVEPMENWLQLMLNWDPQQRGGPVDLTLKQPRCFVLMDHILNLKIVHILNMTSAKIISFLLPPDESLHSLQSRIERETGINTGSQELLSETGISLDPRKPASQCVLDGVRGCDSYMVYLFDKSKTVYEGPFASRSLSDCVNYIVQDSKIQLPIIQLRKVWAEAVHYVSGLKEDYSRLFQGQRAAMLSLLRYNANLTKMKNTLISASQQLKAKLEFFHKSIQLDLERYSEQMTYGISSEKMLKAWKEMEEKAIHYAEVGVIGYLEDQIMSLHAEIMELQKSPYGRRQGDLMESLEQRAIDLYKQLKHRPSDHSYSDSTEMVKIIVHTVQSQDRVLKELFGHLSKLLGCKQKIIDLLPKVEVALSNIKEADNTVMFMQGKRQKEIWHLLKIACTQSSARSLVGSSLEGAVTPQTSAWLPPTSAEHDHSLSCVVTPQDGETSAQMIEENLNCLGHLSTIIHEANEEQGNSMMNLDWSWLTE

[3] = target: Mitogen-activated protein kinase 3 (Homo sapiens) (UniProt P27361); conditions: Compound concentration 1000.0 nM
[4] = target: Casein kinase I isoform epsilon (Homo sapiens) (UniProt P49674); conditions: Compound concentration 1000.0 nM
[5] = target: Serine/threonine-protein kinase PLK3 (Homo sapiens) (UniProt Q9H4B4); conditions: Compound concentration 1000.0 nM
[6] = target: Serine/threonine-protein kinase MRCK beta (Homo sapiens) (UniProt Q9Y5S2); conditions: Compound concentration 1000.0 nM
[7] = target: Dual specificity protein kinase CLK1 (Homo sapiens) (UniProt P49759); conditions: Compound concentration 1000.0 nM
[8] = tested on: Epidermal growth factor receptor (Homo sapiens), P00533 [UNDEFINED MUTATION]; conditions: Compound concentration 1000.0 nM
[9] = target: Interleukin-1 receptor-associated kinase 1 (Homo sapiens) (UniProt P51617); conditions: Compound concentration 1000.0 nM
[10] = target: T2, Rhodopsin kinase GRK1 (Homo sapiens) (UniProt Q15835); conditions: Compound concentration 1000.0 nM
T2 sequence (whole entry): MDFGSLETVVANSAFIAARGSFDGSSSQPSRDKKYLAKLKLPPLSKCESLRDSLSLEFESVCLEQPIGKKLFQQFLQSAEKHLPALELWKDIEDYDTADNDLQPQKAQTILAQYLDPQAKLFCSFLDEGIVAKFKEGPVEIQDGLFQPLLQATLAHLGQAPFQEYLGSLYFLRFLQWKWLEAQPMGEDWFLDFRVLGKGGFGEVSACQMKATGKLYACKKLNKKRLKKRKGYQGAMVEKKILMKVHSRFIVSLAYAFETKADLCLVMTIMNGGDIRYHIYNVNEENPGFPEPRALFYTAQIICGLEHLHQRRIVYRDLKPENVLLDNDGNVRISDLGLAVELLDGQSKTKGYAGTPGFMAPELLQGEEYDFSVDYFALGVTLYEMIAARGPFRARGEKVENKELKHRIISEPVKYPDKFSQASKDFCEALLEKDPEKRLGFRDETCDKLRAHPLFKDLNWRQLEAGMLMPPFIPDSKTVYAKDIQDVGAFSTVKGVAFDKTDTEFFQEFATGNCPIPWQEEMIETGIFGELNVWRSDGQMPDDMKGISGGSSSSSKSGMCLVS

[11] = target: Cyclin-dependent kinase 14 (Homo sapiens) (UniProt O94921); conditions: Compound concentration 1000.0 nM
[12] = tested on: Mast/stem cell growth factor receptor Kit (Homo sapiens), P10721 [V559D]; conditions: Compound concentration 1000.0 nM
[13] = target: 5-hydroxytryptamine receptor 1B (Homo sapiens) (UniProt P28222); conditions: Compound concentration 10.0 uM
[14] = tested on: Tyrosine-protein kinase ABL1 (Homo sapiens), P00519 [Y253F]; conditions: Compound concentration 1000.0 nM
[15] = target: Mitogen-activated protein kinase kinase kinase 12 (Homo sapiens) (UniProt Q12852); conditions: Compound concentration 1000.0 nM
[16] = tested on: Epidermal growth factor receptor (Homo sapiens), P00533 [L861Q]; conditions: Compound concentration 1000.0 nM
[17] = tested on: Tyrosine-protein kinase ABL1 (Homo sapiens), P00519 [Q252H]; conditions: Compound concentration 1000.0 nM
[18] = target: Serine/threonine-protein kinase 26 (Homo sapiens) (UniProt Q9P289); conditions: Compound concentration 1000.0 nM
[19] = target: Calcium/calmodulin-dependent protein kinase type II subunit gamma (Homo sapiens) (UniProt Q13555); conditions: Compound concentration 1000.0 nM
[20] = target: Ribosomal protein S6 kinase alpha-2 (Homo sapiens) (UniProt Q15349); conditions: Compound concentration 1000.0 nM
Chain of Ribosomal protein S6 kinase alpha-2 (Homo sapiens) (Q15349 whole entry): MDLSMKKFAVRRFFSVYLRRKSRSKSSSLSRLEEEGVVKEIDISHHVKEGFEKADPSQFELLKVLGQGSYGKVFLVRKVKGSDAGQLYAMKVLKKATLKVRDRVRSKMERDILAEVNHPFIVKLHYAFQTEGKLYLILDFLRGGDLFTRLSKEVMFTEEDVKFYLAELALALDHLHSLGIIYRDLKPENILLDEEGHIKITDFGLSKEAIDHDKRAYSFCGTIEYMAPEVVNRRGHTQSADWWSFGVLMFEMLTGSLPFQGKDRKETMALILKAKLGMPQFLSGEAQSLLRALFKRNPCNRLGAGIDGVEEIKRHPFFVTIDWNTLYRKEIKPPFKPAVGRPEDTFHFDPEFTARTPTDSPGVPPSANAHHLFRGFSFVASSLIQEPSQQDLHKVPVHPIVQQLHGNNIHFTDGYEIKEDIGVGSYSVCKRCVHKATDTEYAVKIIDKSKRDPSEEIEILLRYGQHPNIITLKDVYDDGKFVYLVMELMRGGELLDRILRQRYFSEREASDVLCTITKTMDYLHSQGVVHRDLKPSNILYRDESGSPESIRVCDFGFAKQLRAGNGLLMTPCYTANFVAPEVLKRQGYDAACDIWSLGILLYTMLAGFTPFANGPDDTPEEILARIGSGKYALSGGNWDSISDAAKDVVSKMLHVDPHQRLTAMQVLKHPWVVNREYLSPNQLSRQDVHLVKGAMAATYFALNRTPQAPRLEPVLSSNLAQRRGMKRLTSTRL

Chain of Calcium/calmodulin-dependent protein kinase type II subunit gamma (Homo sapiens) (Q13555 whole entry): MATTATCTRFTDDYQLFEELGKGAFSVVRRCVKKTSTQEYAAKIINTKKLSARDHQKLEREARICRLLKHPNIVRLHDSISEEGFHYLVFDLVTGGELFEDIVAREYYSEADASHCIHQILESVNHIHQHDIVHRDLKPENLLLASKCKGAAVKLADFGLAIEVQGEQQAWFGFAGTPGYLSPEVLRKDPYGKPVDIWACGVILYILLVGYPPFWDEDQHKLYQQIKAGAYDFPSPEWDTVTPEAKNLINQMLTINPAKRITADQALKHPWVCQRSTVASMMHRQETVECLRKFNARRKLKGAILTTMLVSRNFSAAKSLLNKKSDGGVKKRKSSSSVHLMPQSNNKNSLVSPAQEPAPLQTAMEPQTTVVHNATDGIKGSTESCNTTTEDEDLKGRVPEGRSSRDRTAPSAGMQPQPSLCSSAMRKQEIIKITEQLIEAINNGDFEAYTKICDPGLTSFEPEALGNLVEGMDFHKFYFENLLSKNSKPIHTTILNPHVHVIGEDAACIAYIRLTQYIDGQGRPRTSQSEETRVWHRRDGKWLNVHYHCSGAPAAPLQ
Chain of Mitogen-activated protein kinase 3 (Homo sapiens) (P27361 whole entry, canonical isoform): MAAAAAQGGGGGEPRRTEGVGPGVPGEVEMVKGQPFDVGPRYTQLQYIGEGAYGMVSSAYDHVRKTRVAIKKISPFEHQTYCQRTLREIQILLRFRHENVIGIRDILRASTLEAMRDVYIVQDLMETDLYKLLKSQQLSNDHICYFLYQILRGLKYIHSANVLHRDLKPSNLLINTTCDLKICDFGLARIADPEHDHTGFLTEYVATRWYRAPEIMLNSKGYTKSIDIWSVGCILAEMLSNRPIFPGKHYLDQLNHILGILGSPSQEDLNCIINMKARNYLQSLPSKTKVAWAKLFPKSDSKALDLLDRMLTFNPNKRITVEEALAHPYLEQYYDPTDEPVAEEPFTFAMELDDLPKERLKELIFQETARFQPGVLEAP
Chain of Casein kinase II subunit alpha' (Homo sapiens) (P19784 whole entry, looked up): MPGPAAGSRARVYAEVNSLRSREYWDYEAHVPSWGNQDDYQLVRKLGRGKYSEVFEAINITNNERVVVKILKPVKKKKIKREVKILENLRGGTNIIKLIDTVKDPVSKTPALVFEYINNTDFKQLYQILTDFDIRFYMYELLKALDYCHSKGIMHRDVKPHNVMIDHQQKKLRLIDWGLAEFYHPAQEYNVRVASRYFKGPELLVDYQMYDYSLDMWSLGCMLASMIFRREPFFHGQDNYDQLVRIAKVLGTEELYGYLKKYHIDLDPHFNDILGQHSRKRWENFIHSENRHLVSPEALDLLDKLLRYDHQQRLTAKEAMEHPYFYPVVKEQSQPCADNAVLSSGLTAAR
Chain of Mast/stem cell growth factor receptor Kit (Homo sapiens), P10721 [V559D] (P10721 whole entry V559D): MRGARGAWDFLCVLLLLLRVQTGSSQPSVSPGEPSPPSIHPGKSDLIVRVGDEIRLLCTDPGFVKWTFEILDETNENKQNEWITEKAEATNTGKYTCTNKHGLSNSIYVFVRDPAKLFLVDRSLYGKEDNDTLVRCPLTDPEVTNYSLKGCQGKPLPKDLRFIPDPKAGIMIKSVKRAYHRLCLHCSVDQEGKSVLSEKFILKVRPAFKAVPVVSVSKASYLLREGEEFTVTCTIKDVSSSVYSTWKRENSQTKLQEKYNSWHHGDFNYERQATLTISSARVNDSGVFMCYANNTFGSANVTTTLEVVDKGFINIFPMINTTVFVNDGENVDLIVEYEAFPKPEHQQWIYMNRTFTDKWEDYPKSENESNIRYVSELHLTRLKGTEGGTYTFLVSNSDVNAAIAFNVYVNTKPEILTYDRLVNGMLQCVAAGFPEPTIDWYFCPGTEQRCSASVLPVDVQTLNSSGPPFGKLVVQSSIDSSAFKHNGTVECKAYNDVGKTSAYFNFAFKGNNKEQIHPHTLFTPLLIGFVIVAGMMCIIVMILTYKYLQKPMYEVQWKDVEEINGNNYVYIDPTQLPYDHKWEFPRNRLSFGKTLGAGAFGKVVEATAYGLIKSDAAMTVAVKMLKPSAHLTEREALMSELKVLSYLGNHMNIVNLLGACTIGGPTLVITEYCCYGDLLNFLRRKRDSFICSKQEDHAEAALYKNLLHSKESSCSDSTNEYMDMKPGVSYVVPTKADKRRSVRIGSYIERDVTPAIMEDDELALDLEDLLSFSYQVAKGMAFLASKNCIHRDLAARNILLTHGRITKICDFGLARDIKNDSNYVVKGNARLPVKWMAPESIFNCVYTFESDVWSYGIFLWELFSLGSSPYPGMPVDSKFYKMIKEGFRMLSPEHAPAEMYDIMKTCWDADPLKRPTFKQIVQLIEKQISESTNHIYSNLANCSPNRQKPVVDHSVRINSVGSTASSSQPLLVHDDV
Chain of Serine/threonine-protein kinase MRCK beta (Homo sapiens) (Q9Y5S2 whole entry): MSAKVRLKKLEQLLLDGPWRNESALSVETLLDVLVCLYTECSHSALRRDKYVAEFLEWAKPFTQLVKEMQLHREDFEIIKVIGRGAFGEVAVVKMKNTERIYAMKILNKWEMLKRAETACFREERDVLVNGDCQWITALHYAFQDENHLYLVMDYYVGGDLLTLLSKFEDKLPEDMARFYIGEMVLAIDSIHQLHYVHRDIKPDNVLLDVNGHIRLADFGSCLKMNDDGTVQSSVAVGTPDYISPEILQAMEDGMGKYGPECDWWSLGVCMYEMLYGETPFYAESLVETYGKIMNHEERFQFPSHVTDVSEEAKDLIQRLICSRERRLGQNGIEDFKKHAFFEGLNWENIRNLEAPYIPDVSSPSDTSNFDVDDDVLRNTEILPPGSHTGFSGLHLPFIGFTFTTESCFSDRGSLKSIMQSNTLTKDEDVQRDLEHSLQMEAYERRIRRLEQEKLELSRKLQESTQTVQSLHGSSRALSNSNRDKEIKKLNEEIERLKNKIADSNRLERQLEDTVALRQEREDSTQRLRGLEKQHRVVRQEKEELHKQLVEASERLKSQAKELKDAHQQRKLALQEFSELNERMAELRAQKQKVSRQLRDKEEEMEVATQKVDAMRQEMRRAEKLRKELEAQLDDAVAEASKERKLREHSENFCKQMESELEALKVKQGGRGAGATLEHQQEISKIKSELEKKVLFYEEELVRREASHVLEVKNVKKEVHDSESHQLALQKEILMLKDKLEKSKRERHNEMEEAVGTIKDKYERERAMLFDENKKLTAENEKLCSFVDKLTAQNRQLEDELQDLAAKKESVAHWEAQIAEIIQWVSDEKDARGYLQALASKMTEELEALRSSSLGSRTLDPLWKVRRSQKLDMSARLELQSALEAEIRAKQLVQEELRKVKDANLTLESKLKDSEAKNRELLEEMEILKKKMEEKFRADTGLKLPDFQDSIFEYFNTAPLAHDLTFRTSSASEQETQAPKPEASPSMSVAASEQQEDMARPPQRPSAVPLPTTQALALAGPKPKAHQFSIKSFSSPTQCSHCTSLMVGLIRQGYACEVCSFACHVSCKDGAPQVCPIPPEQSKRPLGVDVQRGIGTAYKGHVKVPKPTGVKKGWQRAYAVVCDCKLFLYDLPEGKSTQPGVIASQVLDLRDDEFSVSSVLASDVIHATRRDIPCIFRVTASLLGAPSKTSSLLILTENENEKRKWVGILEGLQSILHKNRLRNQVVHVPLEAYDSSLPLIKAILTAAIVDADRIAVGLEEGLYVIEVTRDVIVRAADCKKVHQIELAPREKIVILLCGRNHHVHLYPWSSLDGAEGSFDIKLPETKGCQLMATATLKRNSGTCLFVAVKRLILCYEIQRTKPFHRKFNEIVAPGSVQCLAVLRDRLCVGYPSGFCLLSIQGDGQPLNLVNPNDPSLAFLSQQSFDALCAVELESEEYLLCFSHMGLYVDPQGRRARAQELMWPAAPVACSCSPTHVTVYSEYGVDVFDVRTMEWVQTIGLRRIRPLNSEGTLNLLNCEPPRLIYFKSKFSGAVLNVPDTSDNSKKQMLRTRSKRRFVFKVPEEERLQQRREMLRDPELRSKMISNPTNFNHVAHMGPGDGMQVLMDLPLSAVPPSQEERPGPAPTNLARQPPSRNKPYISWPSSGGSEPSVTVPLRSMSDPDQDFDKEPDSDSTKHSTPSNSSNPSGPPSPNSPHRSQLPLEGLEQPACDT

Cc1nc(C2CCN(C(=O)c3ccc(OC(F)(F)F)cc3N)CC2)c2ncc(N3CCN(C)CC3)cc2n1 [BAY-693]
inactive: residual activity [1] 85% | residual activity [2] 84% | residual activity [3] 98% | residual activity [4] 100% | residual activity [5] 100% | residual activity [6] 100% | residual activity [7] 100% | residual activity [8] 100% | residual activity [9] 100% | residual activity [10] 100% | residual activity [11] 100% | residual activity [12] 93% | inhibition [13] 14.6% | residual activity [14] 98% | residual activity [15] 100% | residual activity [16] 100% | residual activity [17] 100% | residual activity [18] 100% | residual activity [19] 100% | residual activity [20] 100%

CN1CCN(c2cnc3c(C4CCN(C(=O)c5ccc(OC(F)(F)F)cc5N)CC4)ncnc3c2)CC1 [BAY-885]
inactive: residual activity [1] 93% | residual activity [2] 100% | residual activity [3] 100% | residual activity [4] 100% | residual activity [5] 100% | residual activity [6] 100% | residual activity [7] 100% | residual activity [8] 100% | residual activity [9] 100% | residual activity [10] 96% | residual activity [11] 100% | residual activity [12] 99% | inhibition [13] 14.9% | residual activity [14] 100% | residual activity [15] 100% | residual activity [16] 100% | residual activity [17] 100% | residual activity [18] 98% | residual activity [19] 100% | residual activity [20] 100%
